Experiments:
[1] = test system: T47D cells; experiment: Monolayer growth inhibition, crystal violet assay; type: cell-based; settings: Homo sapiens, T47D (ER/PR), 5 days, single dose on day 1
Description: (§1) In all instances a single dose was given on day 1 of the experiment. […] Complete (100%) growth suppression was achievable with several of the compounds in multiple different cell lines.

[2] = test system: JIMT-1 cells; experiment: Monolayer growth inhibition, crystal violet assay; type: cell-based; settings: Homo sapiens, 5 days, single dose on day 1
Description: as §1

[3] = test system: MDA-MB-468 cells; experiment: Monolayer growth inhibition, crystal violet assay; type: cell-based; settings: Homo sapiens, 5 days, single dose on day 1
Description: as §1

[4] = test system: HCC1937 cells; experiment: Monolayer growth inhibition, crystal violet assay; type: cell-based; settings: Homo sapiens, 5 days, single dose on day 1
Description: as §1

[5] = test system: T47D cells; experiment: Monolayer growth inhibition, Alamar blue assay; type: cell-based, Human; settings: Homo sapiens, T47D (ER/PR), 5 days, single dose on day 1
Description: (§2) In all instances a single dose was given on day 1 of the experiment.

[6] = test system: SUM149-PTXR cells; experiment: Monolayer growth inhibition, Alamar blue assay; type: cell-based, Human; settings: Homo sapiens; SUM149-PTXR (TNBC, BRCA Mutant), 5 days, single dose on day 1
Description: as §2

[7] = test system: All cell lines; experiment: Monolayer growth inhibition, Alamar blue assay, range over all cell lines; type: cell-based; settings: 120 h; range of IC50 over all cell lines of the table; read-out: IC50 Values - Alamar Blue (5 Days), Range, All
Description: as §2

[8] = test system: All cell lines; experiment: Monolayer growth inhibition, crystal violet assay, range over all cell lines; type: cell-based; settings: 120 h; range of IC50 over all cell lines of the table; read-out: IC50 Values - Crystal Violet (5 Days), Range, All
Description: as §1

[9] = test system: HCC1143 cells; experiment: Monolayer growth inhibition, Alamar blue assay; type: cell-based; settings: Homo sapiens, 5 days, single dose on day 1
Description: as §2

[10] = test system: PC3 cells; experiment: Monolayer growth inhibition, Alamar blue assay; type: cell-based; settings: Homo sapiens, PC-3; PC3 (Prostate), 5 days, single dose on day 1
Description: as §2

[11] = test system: 4T1 cells; experiment: Monolayer growth inhibition, Alamar blue assay; type: cell-based; settings: Mus musculus, 5 days, single dose on day 1
Description: as §2

[12] = test system: JIMT-1 cells; experiment: Monolayer growth inhibition, Alamar blue assay; type: cell-based; settings: Homo sapiens, 5 days, single dose on day 1
Description: as §2

[13] = test system: SUM149 cells; experiment: Monolayer growth inhibition, Alamar blue assay; type: cell-based; settings: Homo sapiens, 5 days, single dose on day 1
Description: as §2

[14] = test system: MDA-MB-468 cells; experiment: Monolayer growth inhibition, Alamar blue assay; type: cell-based; settings: Homo sapiens, 5 days, single dose on day 1
Description: as §2

[15] = test system: MDA-MB-435 cells; experiment: Monolayer growth inhibition, Alamar blue assay; type: cell-based; settings: Homo sapiens, 5 days, single dose on day 1
Description: as §2

[16] = test system: HCC1937 cells; experiment: Monolayer growth inhibition, Alamar blue assay; type: cell-based; settings: Homo sapiens, 5 days, single dose on day 1
Description: as §2

[17] = test system: MDA-MB-231 cells; experiment: Monolayer growth inhibition, Alamar blue assay; type: cell-based; settings: Homo sapiens; MDA-MB-231 (TNBC), 5 days, single dose on day 1
Description: as §2

[18] = test system: HCC1143 cells; experiment: Monolayer growth inhibition, crystal violet assay; type: cell-based; settings: Homo sapiens, 5 days, single dose on day 1
Description: as §2

[19] = test system: PC3 cells; experiment: Monolayer growth inhibition, crystal violet assay; type: cell-based; settings: Homo sapiens, PC-3; PC3 (Prostate), 5 days, single dose on day 1
Description: as §2

[20] = test system: SUM149-PTXR cells; experiment: Monolayer growth inhibition, crystal violet assay; type: cell-based; settings: Homo sapiens; SUM149-PTXR (TNBC, BRCA Mutant), 5 days, single dose on day 1
Description: as §2

[21] = test system: 4T1 cells; experiment: Monolayer growth inhibition, crystal violet assay; type: cell-based; settings: Mus musculus, 5 days, single dose on day 1
Description: as §2

[22] = test system: SUM149 cells; experiment: Monolayer growth inhibition, crystal violet assay; type: cell-based; settings: Homo sapiens, 5 days, single dose on day 1
Description: as §2

[23] = test system: MDA-MB-435 cells; experiment: Monolayer growth inhibition, crystal violet assay; type: cell-based; settings: Homo sapiens; MDA-MB-435 (Melanoma), 5 days, single dose on day 1
Description: as §2

[24] = test system: MDA-MB-231 cells; experiment: Monolayer growth inhibition, crystal violet assay; type: cell-based; settings: Homo sapiens; MDA-MB-231 (TNBC), 5 days, single dose on day 1
Description: as §2

[25] = test system: 4T1 cells; experiment: Soft agar growth inhibition assay; type: cell-based; settings: Mus musculus, 4T1, 240 h, 4T1, 10 days; read-out: IC50 Values, 10 Days, Soft Agar
Method: Two agar (Alfa Aesar) solutions (0.8% w/v and 0.4% w/v) were prepared in ultrapure water. The 0.8% agar solution was mixed in equal volumes with 2× media previously prepared from powder (Life Technologies) following the manufacturer's instructions and filter sterilized. The 0.8% agar and media solution was added to 24 well plates (Mandel Scientific) at 500 μl per well. The plates were placed in a humidified incubator at 37° C. with 5% CO2. Next, the 0.4% agar solution was mixed in equal volumes with 2× media. Breast cancer cell lines were added to this solution to achieve a final concentration of 2×10^4 cells per well and […] was added to each well on top of the bottom agar and media layer. […] The plates were returned to the incubator for 10-32 days, with a re-dosing of compounds or DMSO every 7 days. After 10-32 days, colonies were counted in 3 different fields of view for each well.
Representative compounds described herein were tested in the soft agar growth inhibition assay against the 4T1 breast cancer cell line.

[26] = test system: CD34+ cells; experiment: Colony forming unit hematopoietic stem cell assay; type: cell-based, human; settings: Homo sapiens, Hematopoietic stem cell, 336 h, CD34+ HSC, 14 days; read-out: IC50 Values - 14 days, CFU Assay
Method: The hematopoietic colony forming cell assay was conducted based on a protocol outlined by StemCell Technologies. […] Following the addition of CD34^+ cells isolated from human cord blood or peripheral blood (StemCell Technologies) at a final concentration of 5×10^2 cells per dish, the tubes were vortexed and allowed to stand for 5 minutes at room temperature. Next, the MethoCult mixtures were dispensed into 35 mm dishes (Corning Incorporated) through blunt end needles (StemCell Technologies) and 5 ml syringes (BD Biosciences) at a volume of 1.1 ml per dish. The medium was evenly distributed across the surface of each dish by gentle tilting and rotation. The dishes were then placed in a 100 mm culture dish (Grenier Bio-One) containing additional 35 mm dishes with sterile water to maintain humidity. […] The number of myeloid and erythroid derived colonies in both the treated and control dishes were counted and compared.

[27] = HCC1937, HCC1937 (TNBC, BRCA Mutant)
[28] = SUM149, SUM149 (TNBC, BRCA Mutant)

Row | SMILES | IC50 [1] [µM] | IC50 ([2]; JIMT-1 (HER2)) [µM] | IC50 ([3]; MDA-MB-468 (TNBC)) [µM] | IC50 ([4]; HCC1937 (TNBC, BRCA Mutant)) [µM] | IC50 [5] [µM] | IC50 [6] [µM] | IC50 [7] [µM] | IC50 [8] [µM] | IC50 ([9]; HCC1143 (TNBC)) [µM] | IC50 [10] [µM] | IC50 ([11]; 4T1 (TNBC)) [µM] | IC50 ([12]; JIMT-1 (HER2)) [µM] | IC50 ([13]; SUM149 (TNBC, BRCA Mutant)) [µM] | IC50 ([14]; MDA-MB-468 (TNBC)) [µM] | IC50 ([15]; MDA-MB-435 (Melanoma)) [µM] | IC50 ([16]; HCC1937 (TNBC, BRCA Mutant)) [µM] | IC50 [17] [µM] | IC50 [19] [µM] | IC50 [20] [µM] | IC50 [23] [µM] | other results
1 | C[C@@H]1CNC(=O)c2cc3ccc(C(=O)Nc4cnn(Cc5ccccc5N)c4)nc3n21 [Compound 17, (R)—N-(1-(2-aminobenzyl)-1H-pyrazol-4-yl)-9-methyl-6-oxo-6,7,8,9-tetrahydropyrido[3′,2′:4,5]pyrrolo[1,2-a]pyrazine-2-carboxamide] | 6.7 ± 1.6 | 7.4 ± 2.5 | 1.6 ± 0.7 | 7.3 ± 3.2 | 5.7 ± 2.1 | 4.2 ± 1.5 | 1.2 to 12.6 | 1 to 8.9 | 5 ± 1.7 | 6 ± 3.2 | 3.8 ± 1.7 | 12.6 ± 5.9 | 8.3 ± 4.9 | 2.1 ± 1.1 | 1.2 ± 1 | 6.8 ± 1.3 | 10.3 ± 0.7 | 2.7 ± 1.2 | 5.2 ± 0.6 | 1 ± 0.3 | IC50 ([18]; HCC1143 (TNBC)): 8.9 ± 3.2 µM; IC50 ([21]; 4T1 (TNBC)): 2 ± 0.6 µM; IC50 ([22]; SUM149 (TNBC, BRCA Mutant)): 5.3 ± 2.2 µM; IC50 [24]: 5.1 ± 2 µM
2 | C[C@@H]1CNC(=O)c2cc3ccc(NC(=O)c4cnn(Cc5cccc(N)c5)c4)nc3n21 [Compound 19, (R)-1-(3-aminobenzyl)-N-(9-methyl-6-oxo-6,7,8,9-tetrahydropyrido[3′,2′:4,5]pyrrolo[1,2-a]pyrazin-2-yl)-1H-pyrazole-4-carboxamide] | 7.7 ± 1.5 | 34 ± 12.8 | 7.4 ± 1 | 19.9 ± 8.7 | 13.5 ± 4.6 | 14.1 ± 4.3 | 10.5 to 37.3 | 7.4 to 34 | 11.5 ± 3.6 | 17.1 ± 8.7 | 20.6 ± 2.5 | 37.3 ± 9 | 15.8 ± 6.4 | 14.7 ± 4.1 | 10.5 ± 2.2 | 16.6 ± 11.5 | 25.6 ± 1.5 | 14.9 ± 6.6 | 13 ± 1.3 | 10.3 ± 3.5 | IC50 ([18]; HCC1143 (TNBC)): 13.8 ± 4.3 µM; IC50 ([21]; 4T1 (TNBC)): 15.8 ± 4.8 µM; IC50 ([22]; SUM149 (TNBC, BRCA Mutant)): 11.1 ± 3.9 µM; IC50 [24]: 17.2 ± 1.9 µM
3 | C[C@@H]1CNC(=O)c2cc3ccc(NC(=O)c4cnn(Cc5ccccc5)c4)nc3n21 [Compound 15, (R)-1-benzyl-N-(9-methyl-6-oxo-6,7,8,9-tetrahydropyrido[3′,2′:4,5]pyrrolo[1,2-a]pyrazin-2-yl)-1H-pyrazole-4-carboxamide] | – | – | – | – | – | 9.2 ± 3 | 3.6 to 21.3 | 5.9 to 21 | – | 11.5 ± 3.4 | – | – | – | – | – | – | – | 5.9 ± 1.4 | 8.8 ± 2.2 | 8.2 ± 2.5 | IC50 [25]: 3.8 µM; IC50 ([1]; T47D): 8.5 ± 0.7 µM; IC50 ([2]; JIMT-1, JIMT-1 (HER2)): 11.2 ± 0.2 µM; IC50 ([3]; MDA-MB-468, MDA-MB-468 (TNBC)): 11.3 ± 0.7 µM; IC50 [4, 27]: 12 ± 0.2 µM; IC50 ([5]; T47D): 7.8 ± 3.7 µM; IC50 [26]: 23.8 µM; IC50 ([9]; HCC1143, HCC1143 (TNBC)): 3.6 ± 2.7 µM; IC50 ([11]; 4T1, 4T1 (TNBC)): 8.8 ± 2.1 µM; IC50 ([12]; JIMT-1, JIMT-1 (HER2)): 8.3 ± 1.8 µM; IC50 [13, 28]: 11.7 ± 2.8 µM; IC50 ([14]; MDA-MB-468, MDA-MB-468 (TNBC)): 13.3 ± 4.1 µM; IC50 ([15]; MDA-MB-435, MDA-MB-435 (Melanoma)): 13.7 ± 3.4 µM; IC50 [16, 27]: 9.7 ± 3.9 µM; IC50 ([18]; HCC1143, HCC1143 (TNBC)): 12.6 ± 3.4 µM; IC50 ([21]; 4T1, 4T1 (TNBC)): 6.9 ± 3 µM; IC50 [22, 28]: 9.9 ± 3.1 µM

From patent US10081632B2, “Substituted tetrahydropyrido[3′,2′:4,5]pyrrolo[1,2-α]pyrazine-2-carboxamides as RSK inhibitors” (Phoenix Molecular Designs, priority 2016, dated 2018)
